Experimental data published in US5302587A, “Platinum (II) complex and agent for treating malignant tumor” (Toray Industries, Inc., priority 1989, dated 1994).

Assays:
[1] = tested on: mouse leukemia cells L1210; experiment: Anti-tumor activity in L1210-transplanted mice (Reference Example 3, Table 4); format: in vivo; conditions: 0.05% Tween 80, L1210-transplanted CDF1 mice
Procedure: The Samples A, B and C synthesized in Reference Examples 1 and 2 were evaluated for their anti-tumor activities by the following method:
In the abdominal cavities of CDFl mice (male, 6-week old, 6-10 mice/group), 105 mouse leukemia cells L1210 subcultured in DBA/2 mice were transplanted. Taking the day of transplantation as Day 0, the test drugs were separately administered intraperitoneally to the mice on Day 1, Day 5 and Day 9, totaling 3 times. Each drug was administered after dissolving or suspending it in 0.05% Tween 80 solution. The evaluation of the effectiveness was performed based on the T/C value which is obtained by the following equation as well as the number of survived mice on Day 30. [formula]

[2] = tested on: Cisplatin-resistant mouse leukemia L1210/CDDP cells; experiment: Anti-tumor activity in cisplatin-resistant L1210-transplanted mice (Table 2); format: in vivo; conditions: L1210/CDDP-transplanted CDF1 mice
Procedure: In the abdominal cavities of CDFl mice (male, 6-week old, 5-10 mice/group, 105 mouse leukemia L1210 cells passaged in DBA/2 mice were transplanted. Defining the day of transplantation as Day 0, the compounds 1-5 of the present invention were separately administered intraperitoneally to mice on Day 1, Day 5 and Day 9, totaling 3 times. Each compound was administered after dissolving it in distilled water for injection. The evaluation of the anti-tumor activities of the platinum complexes against the L1210-transplanted mice was performed by T/C value which is obtained by the following equation: [formula]
In the abdominal cavities of CDFl mice (male, 6-week old, 5-10 mice/group), 105 Cisplatin-resistant mouse leukemia L1210/CDDP cells passaged in DBA/2 mice were transplanted. Defining the day of transplantation as Day 0, the compounds of the present invention and control drugs were separately administered intraperitoneally to mice on Day 1, Day 5 and Day 9, totaling 3 times.
The compounds of the present invention and carboplatin were administered after dissolving them in distilled water for injection and cisplatin was used after dissolving it in physiological saline for injection. The effectiveness of the compounds was evaluated by using the T/C value as in Example 7.

[3] = 10 mg/kg i.p. on Day 1, 5 and 9
[4] = 25 mg/kg i.p. on Day 1, 5 and 9
[5] = 50 mg/kg i.p. on Day 1, 5 and 9
[6] = 100 mg/kg i.p. on Day 1, 5 and 9
[7] = 200 mg/kg i.p. on Day 1, 5 and 9
[8] = 2.5 mg/kg i.p. on Day 1, 5 and 9
[9] = 7.5 mg/kg i.p. on Day 1, 5 and 9

| SMILES | Number of Survived Mice (Day 30) ([1]; 1 mg/kg i.p. on Day 1, 5 and 9) | Number of Survived Mice (Day 30) [1, 3] | Survived Days (Mean ± Standard Deviation) [1, 3] [days] | T/C [1, 3] [%] | Number of Survived Mice (Day 30) [1, 4] | Survived Days (Mean ± Standard Deviation) [1, 4] [days] | T/C [1, 4] [%] | Number of Survived Mice (Day 30) [1, 5] | Survived Days (Mean ± Standard Deviation) [1, 5] [days] | T/C [1, 5] [%] | Number of Survived Mice (Day 30) [1, 6] | Survived Days (Mean ± Standard Deviation) [1, 6] [days] | T/C [1, 6] [%] | Number of Survived Mice (Day 30) [1, 7] | Survived Days (Mean ± Standard Deviation) [1, 7] [days] | T/C [1, 7] [%] | Number of Survived Mice (Day 30) [2, 4] | Survived Days (Mean ± Standard Deviation) [2, 4] [days] | T/C [2, 4] [%] | also measured |
| --- | --- | --- | --- | --- | --- | --- | --- | --- | --- | --- | --- | --- | --- | --- | --- | --- | --- | --- | --- | --- |
| CC(=O)[C-]1C(=O)CCOC1=O.CC(=O)[C-]1C(=O)CCOC1=O.N[C@@H]1CCCC[C@H]1N.O.[Pt+2] (relative stereo) [Sample C, [Pt(II)(trans-l-1,2-diaminocyclohexane)](3-acetyltetrahydropyran-2,4-dione)2.H2 O] | 0/6 | 0/6 | 9.8 ± 1.6 | 117 | 0/6 | 9.5 ± 0.5 | 113 | 0/6 | 8.7 ± 2.2 | 104 | 0/6 | 8.3 ± 0.8 | 99 | 0/6 | 6.2 ± 1.5 | 74 |  |  |  | Survived Days (Mean ± Standard Deviation) ([1]; 1 mg/kg i.p. on Day 1, 5 and 9): 8.7 ± 0.8 days; T/C ([1]; 1 mg/kg i.p. on Day 1, 5 and 9): 104% |
| N.N.[Cl][Pt][Cl] [Cisplatin] |  |  |  |  |  |  |  |  |  |  |  |  |  |  |  |  | 0/6 | 7.2 ± 1.6 | 79 | Number of Survived Mice (Day 30) [1, 8]: 0/6; Survived Days (Mean ± Standard Deviation) [1, 8]: 13.0 ± 2.3 days; T/C [1, 8]: 155%; Number of Survived Mice (Day 30) ([1]; 5 mg/kg i.p. on Day 1, 5 and 9): 0/5; Survived Days (Mean ± Standard Deviation) ([1]; 5 mg/kg i.p. on Day 1, 5 and 9): 13.8 ± 1.1 days; T/C ([1]; 5 mg/kg i.p. on Day 1, 5 and 9): 164%; Number of Survived Mice (Day 30) [1, 9]: 0/6; Survived Days (Mean ± Standard Deviation) [1, 9]: 18.3 ± 6.2 days; T/C [1, 9]: 218%; Number of Survived Mice (Day 30) [2, 8]: 0/6; Survived Days (Mean ± Standard Deviation) [2, 8]: 9.3 ± 1.0 days; T/C [2, 8]: 102%; Number of Survived Mice (Day 30) ([2]; 5 mg/kg i.p. on Day 1, 5 and 9): 0/6; Survived Days (Mean ± Standard Deviation) ([2]; 5 mg/kg i.p. on Day 1, 5 and 9): 8.3 ± 0.5 days; T/C ([2]; 5 mg/kg i.p. on Day 1, 5 and 9): 91%; Number of Survived Mice (Day 30) [2, 3]: 0/6; Survived Days (Mean ± Standard Deviation) [2, 3]: 8.7 ± 0.8 days; T/C [2, 3]: 96% |
| CC(=O)[C-]1C(=O)CC(C)OC1=O.CC(=O)[C-]1C(=O)CC(C)OC1=O.N[C@@H]1CCCC[C@H]1N.O.[Pt+2] (relative stereo) [Sample A, [Pt(II)(trans-l-1,2-diaminocyclohexane)](3-acetyl-6-methyltetrahydropyran-2,4-dione)2.H2 O] | 0/6 | 0/6 | 11.5 ± 1.2 | 137 | 0/6 | 14.2 ± 3.2 | 169 | 0/6 | 17.0 ± 3.0 | 202 | 0/6 | 15.5 ± 5.0 | 185 | 0/6 | 6.0 | 71 |  |  |  |  |
| CC(=O)[C-]1C(=O)CC(C)OC1=O.CC(=O)[C-]1C(=O)CC(C)OC1=O.N[C@@H]1CCCC[C@H]1N.O.[Pt+2] (relative stereo) [Sample B, [Pt(II)(trans-l-1,2-diaminocyclohexane)](3-acetyl-6-methyltetrahydropyran-2,4-dione)2.H2 O] |  |  |  |  | 0/6 | 8.5 ± 0.5 | 101 | 0/6 | 8.8 ± 0.8 | 105 | 0/6 | 9.2 ± 1.5 | 110 | 0/6 | 9.5 ± 2.3 | 113 |  |  |  |  |
| N.N.O=C([O-])C1(C(=O)[O-])CCC1.[Pt+2] [Carboplatin] |  |  |  |  |  |  |  |  |  |  |  |  |  |  |  |  | 0/6 | 9.0 ± 1.1 | 99 | Number of Survived Mice (Day 30) [2, 5]: 0/6; Survived Days (Mean ± Standard Deviation) [2, 5]: 9.7 ± 0.8 days; T/C [2, 5]: 107%; Number of Survived Mice (Day 30) [2, 6]: 0/6; Survived Days (Mean ± Standard Deviation) [2, 6]: 9.3 ± 0.8 days; T/C [2, 6]: 102%; Number of Survived Mice (Day 30) [2, 7]: 0/6; Survived Days (Mean ± Standard Deviation) [2, 7]: 7.3 ± 1.5 days; T/C [2, 7]: 80% |
